Tests used:
[1] = test system: LCLs (lymphoblastoid cells); assay: Proliferation and apoptosis in LCLs with cytotoxic drugs plus G3139 or rituximab; assay type: cell-based
Excerpt: (§1) The use of the targeted therapies, G3139 ([…], Genta, Inc.) and rituximab, to enhance chemosensitivity in EBV-associated lymphoproliferative disease (LPD) have been explored. EBV+LPDs such as post-transplant lymphoproliferative disorder (PTLD) and AIDS-related lymphoma (ARL) typically express bcl-2 and CD20. […] To determine whether these targeted therapies enhance chemosensitivity in EBV+LPD, the effects of cytotoxic drugs in combination with G3139 or rituximab on proliferation and apoptosis in LCLs were examined. […] To determine whether G3139 or rituximab enhanced the anti-tumor activity of chemotherapy in vivo, the effects of VP16 (15 mg/kg ip q3d×4); G3139 (10 mg/kg/d over 12 d ip q3d) or rituximab (20 mg/kg ip wkly×4); and VP16+G3139 or VP16+rituximab (same doses) on survival in the human-SCID model of PTLD were compared. Treatment was started 15 days after ip injection of 20 million LCLs.

[2] = test system: LCLs (EBV-associated lymphoproliferative disease); assay: Survival in the human-SCID model of PTLD; assay type: in vivo, mice; conditions: for median survival: VP16 15 mg/kg ip q3dx4, G3139 10 mg/kg/d over 12 d ip, rituximab 20 mg/kg ip wklyx4, start 15 days after 20 million LCLs ip, untreated 50 days; for animals remaining tumor-free: monotherapy groups, stated jointly
Excerpt: as §1

Row | Compound | effect in combination with chemotherapy [1] | effect on apoptosis ([1]; alone) | effect on proliferation ([1]; alone) | median survival [2] [days] | animals remaining tumor-free [2] [%]
1 | rituximab: targeted therapy; EBV+LPDs typically express bcl-2 and CD20 | augmented the effects of chemotherapy | no effect | minimal | 88 | 7
2 | COc1cc([C@@H]2c3cc4c(cc3[C@@H](O[C@@H]3O[C@@H]5CO[C@@H](C)O[C@H]5[C@H](O)[C@H]3O)[C@H]3COC(=O)[C@H]23)OCO4)cc(OC)c1O [VP16, etoposide] | – | – | – | 86 | 7
